Positions of bridges follow the written chain, without caps; N, C: chain ends. Residues, ends and D or L forms follow the SMILES beside them.

Here are results for one compound from patent publication US8754047B2, “Peptide compositions and methods of use” (The Research Foundation for the State University of New York, priority 2008, dated 2014).

Data set [1] concerns SW480 human colon cancer xenografts. In words: SW480 human colon cancer xenografts in nude mice, tumor volume. The data set is classed as in vivo. Conditions: 500 μg/day intraperitoneally for 19 days. The protocol:
Xenografts were generated as described in FIG. 3A-B and Example 3 except where noted. Each animal had two xenografts, one on its right flank and one on the left. In these studies, the effect of two doses of YJB01, 100 μg and 500 μg per animal were evaluated. The doses were administrated intraperitoneally once a day dissolved in phosphate buffered saline (PBS). Control animals were injected with PBS. Tumor volume was determined as described in Example 3. Tumor volume is expressed as mean±SEM.
Xenografts were generated as described in the Example 3 except where noted. Each animal had two xenografts, one on its right flank and one on the left. In these studies, the effect of two doses of YJB01, 100 μg and 500 μg per animal were evaluated. The doses were administrated intraperitoneally once a day dissolved in phosphate buffered saline (PBS). Control animals were injected with PBS. Tumor volume was determined as described in Example 3. Tumor volume is expressed as mean±SEM.
Xenografts were generated as described in the Example 3 except that 8 Balb/c nude mice in each group were used in this experiment. Nude mice bearing SW480 xenografts were treated with 500 μg/day of YJB02 for 19 days. The doses were administrated intraperitoneally once a day dissolved in phosphate buffered saline (PBS). Control animals were treated with PBS.
Tumor volume was determined as described in Example 3. Tumor volume was monitored and graphed as set forth in FIG. 9A, and is expressed as mean±SEM.

In data set [2] the target is T1, thioredoxin reductase (Rattus norvegicus, UniProt O89049).
T1 sequence (O89049 1-499): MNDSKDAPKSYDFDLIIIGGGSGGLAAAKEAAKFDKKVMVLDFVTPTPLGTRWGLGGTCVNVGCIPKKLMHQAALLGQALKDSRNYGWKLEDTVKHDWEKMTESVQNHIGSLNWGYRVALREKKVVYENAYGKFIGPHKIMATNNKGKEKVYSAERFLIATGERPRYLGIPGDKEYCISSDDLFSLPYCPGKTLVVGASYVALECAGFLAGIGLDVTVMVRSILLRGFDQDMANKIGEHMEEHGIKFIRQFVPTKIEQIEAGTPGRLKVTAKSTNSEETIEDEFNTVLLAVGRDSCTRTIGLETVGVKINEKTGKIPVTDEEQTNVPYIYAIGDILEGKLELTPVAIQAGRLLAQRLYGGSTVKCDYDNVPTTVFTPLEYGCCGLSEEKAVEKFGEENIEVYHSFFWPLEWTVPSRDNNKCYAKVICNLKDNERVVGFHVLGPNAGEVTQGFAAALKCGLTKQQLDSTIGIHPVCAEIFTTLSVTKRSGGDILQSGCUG
In words: biochemical.
Experimental: (§4) The activity was determined based on the change in absorbance (ΔA412) per minute (ΔA412/min).

For data set [3], the system named is BxPC-3 human pancreatic cancer cells. Conditions: read-out: IC50s, BxPC3; inhibits cell growth by 50% at 24 hours of exposure; MTT or cell Titer-Glo. The protocol: (§1) 10,000 HT29 or SW480 human colon cancer cells, BxPC-3 human pancreatic cancer cells, and MCF7 and MDA-MB-231 breast cancer cells were obtained from American Type Culture Collection (ATTC), Manassas, Va., and were seeded in separate 96-well plates. After treatment with various concentrations (6.25 μM, 12.5 μM, 25 μM, 50 μM, 100 μM, or 200 μM) of test peptide for 24 h, cells were stained with MTT (3-(4,5-Dimethyl-2-thiazolyl)-2,5-diphenyl-2H-tetrazolium bromide, from Sigma-Aldrich) following the instructions of the manufacturer. Before dissolving MTT in SDS, the HT29 and SW480 cells were photographed using a digital camera connected with a phase-contrast microscope. (FIG. 2A1-8, and FIG. 2B1-6). Cells that are alive convert MTT into formazan in their active mitochondria and appear dark purple; dead cells are not stained by MTT and appear colorless.
(§2) The IC50 is the concentration of the test agent that inhibits cell growth by 50% at 24 hours of exposure. IC50s were determined using the MTT assay or using the cell Titer-Glo method and following the instructions of the manufacturer ([…]). […] (Sun, Y., and Rigas, B., (2008), Cancer Res., 68(20): 8269-8277).

A further data set deals with MCF7 breast cancer cells. As to conditions: read-out: IC50s, MCF7; inhibits cell growth by 50% at 24 hours of exposure; MTT or cell Titer-Glo. The protocol:
as §1, §2

For data set [4], the system named is MDA-MB-231 breast cancer cells. Conditions: read-out: IC50s, MDA-MB-231; inhibits cell growth by 50% at 24 hours of exposure; MTT or cell Titer-Glo. How it is done: as §1, §2
Data set [5] has as its system SW480 human colon cancer cells. The data set can be described thus: In vitro cell viability assay by MTT / cell Titer-Glo, SW480. How it is done:
as §1, §2
The effect of peptide YJB02 on SW480 colon cancer cells was compared to the effect of peptide YJB02 on the normal human colon epithelial cell line NCM460. […] The viability was determined as described in Example 2.

In data set [6] the test system is SW480 tumor cells. In words: TUNEL staining of xenograft tumor tissue for apoptosis. The data set is classed as in vivo, nude mice. Conditions: tumors of mice treated 500 μg/day for 19 days. How it is done: (§3) Tumor tissue from the mice treated with PBS or YJB02 as described in Example 8 were utilized in this experiment. Cell death was determined by terminal deoxynucleotidyl transferase dUTP nick end labeling (TUNEL) staining sections of paraffin embedded tissues, as previously described (Ouyang, N., Williams, J. L., Tsioulias, G. J., Gao, J., Iatropoulos, M. J., Kopelovich, L., Kashfi, K., and Rigas, B. 2006. Nitric oxide-donating aspirin prevents pancreatic cancer in a hamster tumor model. Cancer Res 66:4503-4511). Cell proliferation was determined by staining sections of paraffin embedded tissues for Ki-67 (Santa Cruz Biotechnology, Calif.) as previously described (Id.)
Slides were stained with TUNEL kit for apoptosis (available from Roche Applied Science, Indianapolis, Ind., US).

The subject of data set [7] is SW480 tumor cells. In words: Ki-67 staining of xenograft tumor tissue for cell proliferation. Conditions: tumors of mice treated 500 μg/day for 19 days. The data set is classed as in vivo, nude mice. The protocol: as §3
Tissue slides from control or YJB02 treated tumors were stained with anti-Ki67 antibody (Santa Cruz Biotechnology, Santa Cruz, Calif., US). As shown in the lower panel of FIG. 10, YJB02 inhibited tumor cell proliferation. […] Slides were counter-stained with hematoxylin.

A further data set in a line: in vitro. Conditions: human, NCM460 normal colon epithelial cells.
The target of data set [8] is T1, thioredoxin reductase.
Experimental: as §4

`CC[C@H](C)[C@H](NC(=O)[C@H](CCCCN)NC(=O)[C@@H](NC(=O)[C@H](CCC(N)=O)NC(=O)[C@H](CCCNC(=N)N)NC(=O)[C@@H]1CCCN1C(=O)[C@@H](NC(=O)[C@@H]1CSSC[C@H](NC(=O)[C@@H](NC(=O)CN)[C@@H](C)O)C(=O)N[C@@H](C(C)C)C(=O)N[C@@H](CC(N)=O)C(=O)N[C@@H](C(C)C)C(=O)NCC(=O)N1)[C@@H](C)CC)[C@@H](C)CC)C(=O)N[C@@H](Cc1c[nH]c2ccccc12)C(=O)N[C@@H](Cc1ccccc1)C(=O)N[C@@H](CCC(N)=O)C(=O)N[C@@H](CC(N)=O)C(=O)N[C@@H](CCCNC(=N)N)C(=O)N[C@@H](CCCNC(=N)N)C(=O)N[C@@H](CCSC)C(=O)N[C@@H](CCCCN)C(=O)N[C@@H](Cc1c[nH]c2ccccc12)C(=O)N[C@@H](CCCCN)C(=O)N[C@@H](CCCCN)C(=O)O` [YJB02] (H-GTCVNVGCIPRQIKIWFQNRRMKWKK-OH; disulfide 3-8; N-terminus and C-terminus assumed) yielded a tumor volume in data set [1] (day 19, control 635 mm^3) of 207 mm^3. For the same compound, the “reduction in SW480 tumor growth” value in data set [1] (vs control) stood at 67%. For the same compound, the IC50 on thioredoxin reductase [2] is 0.036 µM; in data set [3], 36 to 76 µM; with MCF7 breast cancer cells it was 213 µM; in data set [4], 243 µM; in data set [5] (read-out: IC50s, SW480, inhibits cell growth by 50% at 24 hours of exposure, MTT or cell Titer-Glo) it was below 12.5 µM. Also, in data set [5] (200 μmol/L, 24-hour treatment), the “SW480 cells remained viable” value worked out at 20%. In the data set on SW480 tumor cells [6], the “TUNEL (+) cells in tumor tissue” value was “induced more TUNEL (+) cells than control tumors”. For the same compound, the “Ki67 (+) signals in tumor tissue” value in the data set with SW480 tumor cells [7] was “dramatically decreased”. The compound further came in with a viability at 24 h, 200 μmol/L in the data set “in vitro” of 75%. Moreover, on thioredoxin reductase [8], the “thioredoxin reductase activity, ΔA412/min” value was “decreased by YJB02 in a dose dependent manner”.
